According to article PMC11335189, “Revealing molecular determinants governing mambalgin-3 pharmacology at acid-sensing ion channel 1 variants” (Cellular and Molecular Life Sciences: CMLS, 2024):
Like-named read-outs stand apart in the source and are kept apart here. Positions of bridges follow the written chain, without caps; N, C: chain ends. No end group written: not given here.

Legend:
[1] = target: T1, hASIC1b (Homo sapiens, UniProt P78348); test: TEVC in Xenopus laevis oocytes expressing hASIC1b; assay type: cell-based; conditions: for remaining activity at 1 µM: 1 µM peptide, conditioning pH 7.45, mean, n ≥ 5, read-out: I/Icontrol
T1 construct: expressed in transfected cells; host or cells: Xenopus laevis oocytes (cRNA injection)
T1 sequence (P78348 1-562 isoform P78348-3): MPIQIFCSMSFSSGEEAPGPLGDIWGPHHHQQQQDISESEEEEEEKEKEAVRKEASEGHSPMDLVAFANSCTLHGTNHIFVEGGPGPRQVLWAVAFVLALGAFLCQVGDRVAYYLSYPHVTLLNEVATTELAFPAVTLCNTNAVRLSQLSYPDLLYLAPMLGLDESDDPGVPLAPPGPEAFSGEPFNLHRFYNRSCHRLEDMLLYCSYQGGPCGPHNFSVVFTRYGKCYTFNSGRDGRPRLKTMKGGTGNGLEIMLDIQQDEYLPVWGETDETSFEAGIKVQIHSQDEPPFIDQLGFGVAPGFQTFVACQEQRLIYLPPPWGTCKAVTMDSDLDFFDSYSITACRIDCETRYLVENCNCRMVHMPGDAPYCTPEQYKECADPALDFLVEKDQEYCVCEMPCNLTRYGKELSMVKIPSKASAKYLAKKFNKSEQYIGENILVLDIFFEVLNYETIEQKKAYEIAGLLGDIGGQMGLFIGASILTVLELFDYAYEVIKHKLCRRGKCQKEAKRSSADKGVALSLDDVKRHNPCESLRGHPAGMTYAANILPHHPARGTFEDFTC
Method: (§1) Two-electrode voltage-clamp (TEVC) experiments using Xenopus laevis oocytes were conducted as previously described. Briefly, oocytes were surgically removed from anaesthetised female frogs, then treated with collagenase (~ 1 mg/ml, Sigma type I) for 2 h under agitation at room temperature. cRNAs were synthesised using a mMessage mMachine T7 or SP6 transcription kit (Thermo Fisher Scientific Australia Pty Ltd, Scoresby, VIC, Australia) and injected into healthy stage V–VI oocytes at 0.2–20 ng per cell. Different amounts of RNA were used for different wild-type and mutant constructs, as well as to titrate expression levels to record over multiple days and maintaining consistent expression levels. Injected oocytes were incubated at 17 °C for 1–7 days in 50% Leibovitz’s L-15 medium (Gibco, Thermo Fisher Scientific Australia Pty Ltd, Scoresby, VIC, Australia), supplemented with 25 µg/mL gentamicin, 25 µg/mL streptomycin, and 2.5% fetal horse serum. Membrane currents were recorded 2–7 days after cRNA-injection under voltage-clamp at -60 mV (Axon Axoclamp 900 A, Molecular Devices, CA, USA) using two standard glass microelectrodes of 0.5–1 MΩ resistance when filled with 3 M KCl solution. Data were sampled at 2 kHz and filtered at 0.1 kHz using Clampex 10 software (Molecular Devices, CA, USA). A microperfusion system was used to allow fast extracellular solution exchange (bath volume = ~ 30 µL). All experiments were performed at room temperature (18–23 °C) in ND96 (96 mM NaCl, 2 mM KCl, 1.8 mM CaCl2, 2 mM MgCl2, 5 mM HEPES, pH 7.45). In solutions below pH 6.8, HEPES was replaced by MES. All solutions containing peptides contained 0.05% fatty acid free bovine serum albumin to decrease adsorptive losses of peptide to plasticware. For all channels tested, control current magnitudes between 500 and 9000 nA when tested using a conditioning pH of 7.45 and stimulating pH of 6 (except for the chimeras that were stimulated with pH 5) were used for data collection. Before recording any experiments, oocytes were stimulated multiple times with low pH to minimise and stabilise tachyphylaxis/desensitisation, which were then accounted for during analysis. Complete recovery of currents from Ma-3 induced modulation within 3 min of washout at all channels tested allowed for correction for tachyphylaxis/desensitisation during analyses.
(§2) Specific to this work, the standard protocol was for oocytes to be conditioned at pH 7.45 and channels stimulated every 60 s using a 5 s pH 5 or 6 application, unless stated otherwise. For all concentration-response data, peptides were applied for ~ 50 s between each low pH stimulus application. Activation curves were determined by conditioning oocytes at pH 8 (Fig. 2e − g; and Fig. 5a and b) or 7.45 (Fig. 6; and Supplementary Fig. 2d and c) for 55 s and applying low pH stimuli from 7.25 to 5.0 for 5 s. Steady-state desensitisation (SSD) was determined by applying conditioning solutions of pH values from 8 to 6 for 115 s prior to stimulation by a pH drop to 5 for 5 s. Ma-3 was only applied in the conditioning solution for activation and steady-state desensitisation curves in the presence of peptide. Control pH-dependence curves were determined in the absence of any Ma-3. When assessing the effect of Ma-3 on the rASIC1a: ASIC1b chimeras (C92 and C166; and for the comparative wild-type data), the conditioning pH was 7.45 and stimulating pH 5 (Fig. 3b). Specific details of the conditioning and stimulating pH are noted in each figure legend.
(§3) Data were analysed using pCLAMP-Clampfit software (Version 11, Molecular Devices, CA, USA) and GraphPad Prism 9.5 and 10.2.2 (GraphPad Software, San Diego, CA, USA). To obtain the Hill coefficient (nH) and half-maximal response (EC50, IC50, or pH50) the Hill equation was fitted to normalised concentration-response curves by using a non-linear fit to the data of a four-parameter logistic equation (“sigmoidal dose-response” in GraphPad Prism 9.5). […]

[2] = target: T2, rASIC1a (Rattus norvegicus, UniProt P55926); test: TEVC in Xenopus laevis oocytes expressing rASIC1a; assay type: cell-based; conditions: peptides applied at pH 7.45, stimulated at pH 6
T2 construct: expressed in transfected cells; host or cells: Xenopus laevis oocytes (cRNA injection)
T2 sequence (P55926 1-526): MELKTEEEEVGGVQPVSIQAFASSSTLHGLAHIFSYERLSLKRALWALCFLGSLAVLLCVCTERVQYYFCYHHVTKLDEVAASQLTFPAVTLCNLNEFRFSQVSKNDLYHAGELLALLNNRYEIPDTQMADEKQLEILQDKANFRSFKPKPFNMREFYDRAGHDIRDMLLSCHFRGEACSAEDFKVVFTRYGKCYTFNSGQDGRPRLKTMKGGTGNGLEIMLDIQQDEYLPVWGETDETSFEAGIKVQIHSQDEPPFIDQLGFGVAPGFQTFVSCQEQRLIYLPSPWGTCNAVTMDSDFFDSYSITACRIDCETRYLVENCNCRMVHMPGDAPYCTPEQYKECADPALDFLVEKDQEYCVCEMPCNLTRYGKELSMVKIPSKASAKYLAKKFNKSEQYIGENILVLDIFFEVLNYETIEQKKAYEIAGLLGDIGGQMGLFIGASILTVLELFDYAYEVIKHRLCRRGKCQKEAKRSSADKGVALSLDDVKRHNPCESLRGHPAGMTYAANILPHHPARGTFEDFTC
Method: as §1, §2, §3

[3] = target: T3, rat acid-sensing ion channel 1a (rat) (UniProt P55926)
T3 sequence: T2 sequence (P55926 1-526)

Substance: H-SLKCYQHGKVVTCHRDMKFCYHNAGMPFRNLKLILQGCSSSCSETENNKCCSTDRCNK (disulfide 4-20, 13-38, 42-50, 51-56 (inferred)) [I23A]
- remaining activity at 1 µM ([1]; pH 5 evoked currents): 67%
- remaining activity at 1 µM ([1]; pH 6 evoked currents): 159%

Substance: H-SLKCYQAGKVVTCHRDMKFCYHNIGMPFRNLKLILQGCSSSCSETENNKCCSTDRCNK (disulfide 4-20, 13-38, 42-50, 51-56 (inferred)) [H6A]
- increase in IC50 (loss of potency) relative to wild-type Ma-3 [2]: greater than 10 fold
- remaining activity at 1 µM ([1]; pH 5 evoked currents): 98%
- remaining activity at 1 µM ([1]; pH 6 evoked currents): 103%

Substance: H-SLKCYQHGKVVTCHRDMKFCYHNIGMPFRNLKLILQGCSSSCSETENNKCCSTDACNK (disulfide 4-20, 13-38, 42-50, 51-56 (inferred)) [R54A]
- remaining activity at 1 µM ([1]; pH 5 evoked currents): 79%
- remaining activity at 1 µM ([1]; pH 6 evoked currents): 145%

Substance: H-SLKCYQHGKVVTCHRDMKFCYHNIGMPFANLKLILQGCSSSCSETENNKCCSTDRCNK (disulfide 4-20, 13-38, 42-50, 51-56 (inferred)) [R28A]
- increase in IC50 (loss of potency) relative to wild-type Ma-3 [2]: greater than 10 fold
- remaining activity at 1 µM ([1]; pH 5 evoked currents): 97%
- remaining activity at 1 µM ([1]; pH 6 evoked currents): 118%

Substance: H-SLKCYQHGKVVTCHRDMKFCYHNIGMPFRNLKAILQGCSSSCSETENNKCCSTDRCNK (disulfide 4-20, 13-38, 42-50, 51-56 (inferred)) [L32A]
- increase in IC50 (loss of potency) relative to wild-type Ma-3 [2]: greater than 10 fold
- remaining activity at 1 µM ([1]; pH 5 evoked currents): 96%
- remaining activity at 1 µM ([1]; pH 6 evoked currents): 100%

Substance: H-SLKCYQHGKVVTCHADMKFCYHNIGMPFRNLKLILQGCSSSCSETENNKCCSTDRCNK (disulfide 4-20, 13-38, 42-50, 51-56 (inferred)) [R14A]
- remaining activity at 1 µM ([1]; pH 5 evoked currents): 77%
- remaining activity at 1 µM ([1]; pH 6 evoked currents): 157%

Substance: H-SLKCYQHGKVVTCHRDMKFCYHNIGMPFRNAKLILQGCSSSCSETENNKCCSTDRCNK (disulfide 4-20, 13-38, 42-50, 51-56 (inferred)) [L30A]
- remaining activity at 1 µM ([1]; pH 5 evoked currents): 116%
- remaining activity at 1 µM ([1]; pH 6 evoked currents): 172%

Substance: H-SLKCYQHGKVVTCHRDMKFCYHNIGMPFRALKLILQGCSSSCSETENNKCCSTDRCNK (disulfide 4-20, 13-38, 42-50, 51-56 (inferred)) [N29A]
- remaining activity at 1 µM ([1]; pH 5 evoked currents): 76%
- remaining activity at 1 µM ([1]; pH 6 evoked currents): 171%

Substance: H-SLKCYQHGKVVTCHRDMKFCYHNIGMPFRNLKLALQGCSSSCSETENNKCCSTDRCNK (disulfide 4-20, 13-38, 42-50, 51-56 (inferred)) [I33A]
- increase in IC50 (loss of potency) relative to wild-type Ma-3 [2]: greater than 10 fold
- remaining activity at 1 µM ([1]; pH 5 evoked currents): 100%
- remaining activity at 1 µM ([1]; pH 6 evoked currents): 133%

Substance: H-SLKCYQHGKVVTCARDMKFCYHNIGMPFRNLKLILQGCSSSCSETENNKCCSTDRCNK (disulfide 4-20, 13-38, 42-50, 51-56 (inferred)) [H13A]
- remaining activity at 1 µM ([1]; pH 5 evoked currents): 74%
- remaining activity at 1 µM ([1]; pH 6 evoked currents): 142%

Substance: H-SLKCYQHGKVVTCHRDMKFCYHNIGMPFRNLKLILQGCSSSCSETENNKCCSTDRCNA (disulfide 4-20, 13-38, 42-50, 51-56 (inferred)) [K57A]
- remaining activity at 1 µM ([1]; pH 5 evoked currents): 73%
- remaining activity at 1 µM ([1]; pH 6 evoked currents): 147%

Substance: H-SLKCYQHGKVVTCHRDMKFCYHNIGMPFRNLALILQGCSSSCSETENNKCCSTDRCNK (disulfide 4-20, 13-38, 42-50, 51-56 (inferred)) [K31A]
- remaining activity at 1 µM ([1]; pH 5 evoked currents): 94%
- remaining activity at 1 µM ([1]; pH 6 evoked currents): 140%

Substance: H-SLKCYQHGKVVTCHRDMKFCYHNIGMPFRNLKLIAQGCSSSCSETENNKCCSTDRCNK (disulfide 4-20, 13-38, 42-50, 51-56 (inferred)) [L34A]
- increase in IC50 (loss of potency) relative to wild-type Ma-3 [2]: greater than 10 fold
- remaining activity at 1 µM ([1]; pH 5 evoked currents): 98%
- remaining activity at 1 µM ([1]; pH 6 evoked currents): 116%

Substance: H-SLKCYQHGKVVTCHRDMKFCYHNIGMPARNLKLILQGCSSSCSETENNKCCSTDRCNK (disulfide 4-20, 13-38, 42-50, 51-56 (inferred)) [F27A]
- increase in IC50 (loss of potency) relative to wild-type Ma-3 [2]: greater than 10 fold
- remaining activity at 1 µM ([1]; pH 5 evoked currents): 96%
- remaining activity at 1 µM ([1]; pH 6 evoked currents): 111%

Substance: H-SLKCYQHGKVVTCHRDMKFCYHNIGMPFRNLKLILQGCSSSCSETANNKCCSTDRCNK (disulfide 4-20, 13-38, 42-50, 51-56 (inferred)) [E45A]
- remaining activity at 1 µM ([1]; pH 5 evoked currents): 68%
- remaining activity at 1 µM ([1]; pH 6 evoked currents): 163%

Substance: LKCYQHGKVVTCHRDMKFCYHNTGMPFRNLKLILQGCSSSCSETENNKCCSTDRCNK (disulfide 3-19, 12-37, 41-49, 50-55) [Ma-1, reference compound]
- Hill slope (95% CI) ([1]; conditioning pH 7.45, pH 6 evoked currents, potentiation, 95% CI): 0.73–2.56

Substance: H-SLKCYQHGKVVTCHRDMKFCYHNIGMPFRNLKLILQGCSSSCSETENNACCSTDRCNK (disulfide 4-20, 13-38, 42-50, 51-56 (inferred)) [K48A]
- remaining activity at 1 µM ([1]; pH 5 evoked currents): 70%
- remaining activity at 1 µM ([1]; pH 6 evoked currents): 154%

Substance: Ma-3 H6A (peptide)
- fold increase of the IC50 of current inhibition against wild-type Ma-3 (conditioning pH 7.45, stimulus pH 6) [3]: > 10 fold

Substance: H-SLKCYQHGKVVTCHRDMKFCYHNIGMPFRNLKLILQGCSAACSETENNKCCSTDRCNK (disulfide 4-20, 13-38, 42-50, 51-56 (inferred)) [S39A/S40A]
- remaining activity at 1 µM ([1]; pH 5 evoked currents): 71%
- remaining activity at 1 µM ([1]; pH 6 evoked currents): 165%

Substance: H-SLKCYQHGKVVTCHRDMKFCYHNIGMPFRNLKLILAGCSSSCSETENNKCCSTDRCNK (disulfide 4-20, 13-38, 42-50, 51-56 (inferred)) [Q35A]
- remaining activity at 1 µM ([1]; pH 5 evoked currents): 71%
- remaining activity at 1 µM ([1]; pH 6 evoked currents): 168%
